Data from PMC6934184, “Selective DNA-PKcs inhibition extends the therapeutic index of localized radiotherapy and chemotherapy” (The Journal of Clinical Investigation, 2019).

Molecular target: T1, BRSK2 (Homo sapiens, UniProt Q8IWQ3)
T1 construct: purchased Thermo Fisher Scientific (Life Technologies) SelectScreen
Experiment: SelectScreen LanthaScreen
Assay type: binding
Settings: read-out: % displacement
Procedure, shortened: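 NU5455 was profiled across the SelectScreen Broad panel of kinase activity and binding assays. Z'LYTE reactions such as CSF1R ran at apparent Km ATP, while the Adapta CAMK1 assay used ATP listed as 10. Values are given as percent.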

T1 sequence (Q8IWQ3 whole entry): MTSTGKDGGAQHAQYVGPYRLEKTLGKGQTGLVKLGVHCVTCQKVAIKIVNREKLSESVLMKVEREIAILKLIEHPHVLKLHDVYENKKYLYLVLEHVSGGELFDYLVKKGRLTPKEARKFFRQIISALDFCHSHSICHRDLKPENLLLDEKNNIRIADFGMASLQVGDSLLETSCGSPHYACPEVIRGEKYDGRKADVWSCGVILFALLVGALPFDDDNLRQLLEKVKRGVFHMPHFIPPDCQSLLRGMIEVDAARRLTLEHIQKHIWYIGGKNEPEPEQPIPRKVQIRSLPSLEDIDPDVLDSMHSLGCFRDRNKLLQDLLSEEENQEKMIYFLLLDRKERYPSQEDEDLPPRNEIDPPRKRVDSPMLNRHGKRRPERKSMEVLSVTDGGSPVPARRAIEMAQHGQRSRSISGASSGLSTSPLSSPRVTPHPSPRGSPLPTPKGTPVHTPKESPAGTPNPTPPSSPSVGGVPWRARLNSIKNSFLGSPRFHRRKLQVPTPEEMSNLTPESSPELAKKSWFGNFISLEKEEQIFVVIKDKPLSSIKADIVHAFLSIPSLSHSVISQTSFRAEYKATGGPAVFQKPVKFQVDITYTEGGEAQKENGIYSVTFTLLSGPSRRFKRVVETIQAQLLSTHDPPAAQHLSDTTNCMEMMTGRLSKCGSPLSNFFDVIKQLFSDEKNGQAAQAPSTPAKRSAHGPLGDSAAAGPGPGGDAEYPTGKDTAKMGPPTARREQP

CN(C(=O)CN1CCOCC1)c1ccc2sc3c(-c4cccc5c(=O)cc(N6CC7CCC(C6)O7)oc45)cccc3c2c1 [NU5455]
inhibition at 1 µM: 1.2%
